Patent publication US20250064990A1, “METHODS OF SCREENING FOR VMAT2 INHIBITORS” (Neurocrine Biosciences, Inc., priority 2021, published 2025)

Assay: NBI-750142 concentration in cynomolgus monkey plasma by LC-MS/MS
Type: in vivo, cynomolgus monkeys (Macaca fascicularis)
Settings: for concentration at 30 min / concentration at 60 min / concentration at 90 min / concentration at 120 min / concentration at 150 min / concentration at 180 min / concentration at 1 min: cynomolgus monkey, intravenous
Method: During each scan, whole blood PK samples were collected (in K2 EDTA tubes) at pre-dose (−5 min), and post-dose at 1 (end of bolus), 30, 60 (just prior to [^18F]AV-133 radiopharmaceutical administration), 90, 120, 150, 180 (end of scan) minutes after test article administration. PK samples were approximately 1 mL each (8 mL total, including pre-dose sample). PK sample collection times were relative to start of NBI-750142 bolus administration.
NBI-750142 concentration in cynomolgus monkey plasma samples was analyzed using a qualified LC-MS/MS bioanalytical method. […] Plasma samples were processed using protein precipitation extraction with 0.1% formic acid in acetonitrile and the addition of stable deuterium isotope labeled internal standard NBI-750142-D6. Processed samples were chromatographically separated on a C18 column and coupled to a Sciex API 4000 triple quadrupole mass spectrometer.
The method used in this study was qualified for a range of 0.250 to 250 ng/mL based on the analysis of 100 μL of plasma by LC-MS-MS. Quantitation was performed using a weighted 1/×2 linear least squares regression analysis generated from calibration standards. The protein precipitation extraction procedure began with the addition of internal standard solution (20.0 μL of approximately 100 ng/mL deuterated NBI-750142-D6). After adding 400 μL of acetonitrile/formic acid (1000:1.00), the tubes were sealed, vortexed and centrifuged. Subsequently, 100 μL of the supernatant was transferred to a new plate containing 400 μL of water/formic acid (1000:1.00). […] A triple quadrupole mass spectrometer (Sciex API 4000) equipped with TurboIonSpray source was used in the positive ion mode. Quantitation was based on multiple reaction monitoring (MRM) of m/z transitions of NBI-750142 and NBI-750142-D6.

[1] = 0.026 mg/kg, GC786, 0.026 mg/kg i.v.
[2] = 0.084 mg/kg, EC865, 0.084 mg/kg i.v.
[3] = 0.26 mg/kg, GC786, 0.26 mg/kg i.v.
[4] = 0.26 mg/kg, LC206, 0.26 mg/kg i.v.
[5] = 0.52 mg/kg, EC865, 0.52 mg/kg i.v.
[6] = 0.78 mg/kg, GC786, 0.78 mg/kg i.v.

In the case of `COc1cc2c(cc1OC)[C@H]1CN(C)[C@H](CC(C)(C)C)CN1CC2` [NBI-750142], the “Mean ng/mL NBI-750142 Concentration during PET Scan (60-180 min)” value (EC865, 0.084 mg/kg i.v.) is reported as 6.4 ng/mL, the “Mean ng/mL NBI-750142 Concentration during PET Scan (60-180 min)” value (EC865, 0.52 mg/kg i.v.) is reported as 37.6 ng/mL and the “Mean ng/mL NBI-750142 Concentration during PET Scan (60-180 min)” value (GC786, 0.026 mg/kg i.v.) is reported as 2.9 ng/mL. For the same compound, the “ng/mL NBI-750142 at 1 min” value (GC786, 0.026 mg/kg i.v., BLQ = <0.250 ng/mL) was “BLQ”, the “Mean ng/mL NBI-750142 Concentration during PET Scan (60-180 min)” value (GC786, 0.26 mg/kg i.v.) was 12.3 ng/mL and the “Mean ng/mL NBI-750142 Concentration during PET Scan (60-180 min)” value (GC786, 0.78 mg/kg i.v.) was 74.5 ng/mL. For the same compound, the “Mean ng/mL NBI-750142 Concentration during PET Scan (60-180 min)” value (LC206, 0.26 mg/kg i.v.) was 35.7 ng/mL, the concentration at 30 min [1] was 2.31 ng/mL and the concentration at 60 min [1] was 2.24 ng/mL. It also gave a concentration at 90 min [1] of 2.56 ng/mL, a concentration at 120 min [1] of 2.69 ng/mL and a concentration at 150 min [1] of 3.69 ng/mL. The concentration at 180 min [1] was 3.1 ng/mL, the concentration at 1 min [2] was 108 ng/mL and the concentration at 30 min [2] was 7.42 ng/mL. The concentration at 60 min [2] was 6.04 ng/mL, the concentration at 90 min [2] was 5.91 ng/mL and the concentration at 120 min [2] was 5.85 ng/mL. It also gave a concentration at 150 min [2] of 7.34 ng/mL, a concentration at 180 min [2] of 7.07 ng/mL and a concentration at 1 min [3] of 102 ng/mL. The concentration at 30 min [3] was 18.4 ng/mL, the concentration at 60 min [3] was 10.6 ng/mL and the concentration at 90 min [3] was 6.85 ng/mL. The concentration at 120 min [3] was 13.4 ng/mL, the concentration at 150 min [3] was 15.2 ng/mL and the concentration at 180 min [3] was 15.3 ng/mL. For the same compound, the concentration at 1 min [4] was 119 ng/mL, the concentration at 30 min [4] was 31 ng/mL and the concentration at 60 min [4] was 26 ng/mL. For the same compound, the concentration at 90 min [4] was 38.3 ng/mL, the concentration at 120 min [4] was 41.1 ng/mL and the concentration at 150 min [4] was 37.7 ng/mL. The concentration at 180 min [4] was 35.2 ng/mL, the concentration at 1 min [5] was 295 ng/mL and the concentration at 30 min [5] was 45.1 ng/mL. For the same compound, the concentration at 60 min [5] was 36.9 ng/mL, the concentration at 90 min [5] was 35.3 ng/mL and the concentration at 120 min [5] was 36.2 ng/mL. For the same compound, the concentration at 150 min [5] was 38.4 ng/mL, the concentration at 180 min [5] was 41.3 ng/mL and the concentration at 1 min [6] was 186 ng/mL. For the same compound, the concentration at 30 min [6] was 63 ng/mL, the concentration at 60 min [6] was 65.2 ng/mL and the concentration at 90 min [6] was 69.9 ng/mL. The concentration at 120 min [6] was 75.1 ng/mL, the concentration at 150 min [6] was 76 ng/mL and the concentration at 180 min [6] was 86.5 ng/mL.
